Data: patent US9315527B2, “Synthesis and applications of peripherally asymmetric aryl POSS compounds” (The United States of America as Represented by the …, priority 2011, dated 2016)
Converted amounts (≈) assume the structure as drawn.

Tests used:
[1] = Phase behavior of POSS in polyetherimide (Ultem 1000, PEI): chloroform solutions and drop cast annealed films; format: physicochemical; details: for Appearance of chloroform solution containing PEI and POSS: 5 weight percent PEI in chloroform, POSS 5 weight percent with respect to PEI
Description: To examine the phase behavior of this new class of peripherally-asymmetric POSS nanoparticles with a representative aromatic polymer, attempts were made to solubilize both phenyl8Si8O12 and (1-naphthyl)phenyl7Si8O12 in polyetherimide (Ultem 1000, PEI). Chloroform solutions were prepared at a solute concentration of 5 weight percent PEI and POSS concentration of 5 weight percent with respect to PEI. Subsequent films from these solutions were drop cast onto glass substrates, dried under vacuum, and annealed at 220° C., above the glass transition temperature of PEI, to promote equilibrium phase formation.
Qualitatively, the dried and annealed films were visually observed to be of contrasting appearance.

[2] = Solubility of aromatic POSS compounds in organic solvents by visual measurements; format: physicochemical; details: visual measurement; for Solubility in CHCl3: chloroform; for Solubility in PE: phenyl ether; for Solubility in Tol: toluene; for Solubility in DMF: dimethyl formamide; for Solubility in THF: tetrahydrofuran
Description: The influence of the prescribed peripheral asymmetry of these compounds on solubility was determined by visual measurements in five organic solvents, including chloroform (CHCl3), tetrahydrofuran (THF), phenyl ether (PE), toluene (Tol), and dimethyl formamide (DMF), summarized in Table 1.
The substitution of a single polycyclic aromatic ring on the POSS cage improves solubility substantially in most cases. However, it is difficult to predict the influence of each aromatic group on the observed solubility, as well as in which solvent the solubility will be affected. Modification with a 1-naphthyl group to produce (1-naphthyl)-phenyl7Si8O12 (3) results in solubility in CHCl3 and THF exceeding 100 mg/mL and the observance of more finite solubility in the other investigated solvents. Modification with a 2-naphthyl group to produce (2-naphthyl)phenyl7Si8O12 (4) increases solubility in PE and DMF, but reduces solubility in THF and CHCl3, when compared to (1-naphthyl)-phenyl7Si8O12 (3).

[3] = chloroform, benchmark; cited from earlier work

| Compound | Appearance of chloroform solution containing PEI and POSS [1] | Visual appearance of dried and annealed PEI film ([1]; drop cast film, annealed at 220° C.) | Length scale of aggregated particles in PEI film ([1]; drop cast film, annealed at 220° C., microscopy, some regions) | Solubility in CHCl3 [2] [mg/mL] | Solubility in PE [2] | Solubility in Tol [2] | Solubility in CHCl3 (previously documented) [3] | Phase separation length scale in PEI film ([1]; drop cast film, annealed at 220° C., microscopy) | Solubility in DMF [2] [mg/mL] | Solubility in THF [2] [mg/mL] |
| --- | --- | --- | --- | --- | --- | --- | --- | --- | --- | --- |
| c1ccc([Si]23O[Si]4(c5ccccc5)O[Si]5(c6ccccc6)O[Si](c6ccccc6)(O2)O[Si]2(c6ccccc6)O[Si](c6ccccc6)(O3)O[Si](c3ccccc3)(O4)O[Si](c3ccccc3)(O5)O2)cc1 [Compound 2, phenyl8Si8O12] | cloudy | significantly more opaque | greater than 1 mm | 1 (≈ 968 µM) | ^a (Insoluble.) | ^a (Insoluble.) | about 1 mg/mL | – | – | – |
| (1-naphthyl)-phenyl7Si8O12 [Compound 3] | transparent | – | – | – | 15 mg/mL | ^a (Insoluble.) | – | less than 5 microns | 24 | – |
| (1-pyrenyl)phenyl7Si8O12 [Compound 6] | – | – | – | 7 | 4 mg/mL | 5 mg/mL | – | – | 5 | 10 |
| (2-naphthyl)phenyl7Si8O12 [Compound 4] | – | – | – | 55 | 53 mg/mL | ^a (Insoluble.) | – | – | 35 | 28 |
| (9-phenanthrenyl)-phenyl7Si8O12 [Compound 5] | – | – | – | 52 | 25 mg/mL | 27 mg/mL | – | – | 57 | 117 |
